The results in this text go back to patent publication US9187474B2, “Raf inhibitor compounds” (Deciphera Pharmaceuticals, LLC, priority 2012, dated 2015).

Series [1] has as its system A-Raf, B-RafV600E and C-Raf. In words: ActivX KiNativ A375 whole cell lysate assay, summary over Raf isoforms. It is filed as binding, human. Conditions: A375 cells; summary of Table 1. On the procedure:
(§1) To further evaluate the enzymatic pan Raf activities of test compounds, they are evaluated in a KiNativ assay developed and carried out by ActivX Biosciences Inc. using whole cell lysates of A375 cells. A375 cells are human melanoma cells with a B-Raf V600E mutation.
Sample preparation: A375 cells from ATCC are lysed by sonication in commercially available lysis buffer, cleared by centrifugation, and the resulting supernatant gel filtered into a commercially available kinase reaction buffer containing 20 mM MnCl2. Final protein concentration of lysates are 10 mg/mL. 5 μL of each test compound is added from 100 μM, 10 μM, 1 μM, or 0.1 μM stock solutions in DMSO to 500 uL of lysate in duplicate for final concentrations of 1 μM, 0.1 μM, 0.01 μM, and 0.001 μM. 5 μL of DMSO is added to 500 μL of lysate in quadruplicate for controls. After 15 minute incubation, desthiobiotin-ATP acylphosphate probe is added to each sample to a final concentration of 5 μM and incubated with the samples for 10 minutes. […]
(§2) Data collection: Enriched peptide samples are analyzed by LC-MS/MS on a Thermo-LTQ Velos ion trap mass spectrometer using ActivX data collection methodology for A375 cells.
Data analysis: All quantitation is performed by extracting characteristic fragment ion signals from targeted MS/MS spectra and comparing signals in control and treated samples. […]

In series [2] the test system is phospho-ERK in A375 (B-Raf V600E) xenograft. In words: A375 mouse xenograft pharmacodynamic assay (tumor pERK by ELISA). It is filed as in vivo, mice. Conditions: A-375, 20 mg/kg oral, 2 h post dose, vs vehicle, read-out: Measured pERK inhibition 2 h post dose. On the procedure: To evaluate the in vivo pharmacodynamic (PD) effects of compounds of Formula I, an A375 (B-Raf V600E) xenograft model is employed. Briefly, 10×10^6 A375 tumor cells (ATCC) are prepared in a 1:1 matrigel mix (0.2 mL total volume) and implanted by subcutaneous injection in hind leg of nude female mice. A total of 4 mice each for each dosing group are employed. Treatment is initiated with oral administration (gavage) of test compound or vehicle (20% captisol, 25 mM phosphate, pH2.0) in 0.2 mL volume when average tumor size reaches approximately 300 mg. After a fixed time interval, the tumors are harvested and the phospho-ERK levels are measured by ELISA (Enzyme-linked immunosorbent assay). Treated groups are compared to the vehicle control group to calculate % inhibition.
In general terms: In an ELISA, binding on a coated surface is turned into a signal by an enzyme label.

The target of a further series is C-Raf (Homo sapiens (Human), UniProt P04049). In words: ActivX KiNativ A375 whole cell lysate assay. It is filed as binding. On the procedure: as §1
C-Raf, sequence (P04049 whole entry): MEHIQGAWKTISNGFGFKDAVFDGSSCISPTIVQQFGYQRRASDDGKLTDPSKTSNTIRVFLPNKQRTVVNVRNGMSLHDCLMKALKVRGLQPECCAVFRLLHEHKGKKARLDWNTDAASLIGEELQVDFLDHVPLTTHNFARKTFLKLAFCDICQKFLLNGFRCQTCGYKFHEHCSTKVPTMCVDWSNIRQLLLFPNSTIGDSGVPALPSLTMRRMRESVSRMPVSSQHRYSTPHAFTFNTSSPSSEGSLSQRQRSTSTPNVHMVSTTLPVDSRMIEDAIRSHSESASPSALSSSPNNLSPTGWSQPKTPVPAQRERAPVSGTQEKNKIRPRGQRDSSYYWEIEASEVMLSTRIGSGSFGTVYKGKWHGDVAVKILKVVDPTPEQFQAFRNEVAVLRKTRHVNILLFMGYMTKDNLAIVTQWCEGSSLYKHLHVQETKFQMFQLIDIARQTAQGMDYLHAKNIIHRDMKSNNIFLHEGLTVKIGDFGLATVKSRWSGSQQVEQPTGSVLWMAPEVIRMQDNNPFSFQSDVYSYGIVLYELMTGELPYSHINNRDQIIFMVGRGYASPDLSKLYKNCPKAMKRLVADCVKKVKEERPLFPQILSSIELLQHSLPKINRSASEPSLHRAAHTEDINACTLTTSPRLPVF
(§3) Sample preparation: A375 cells from ATCC are lysed by sonication in commercially available lysis buffer, cleared by centrifugation, and the resulting supernatant gel filtered into a commercially available kinase reaction buffer containing 20 mM MnCl2. Final protein concentration of lysates are 10 mg/mL. 5 μL of each test compound is added from 100 μM, 10 μM, 1 μM, or 0.1 μM stock solutions in DMSO to 500 uL of lysate in duplicate for final concentrations of 1 μM, 0.1 μM, 0.01 μM, and 0.001 μM. 5 μL of DMSO is added to 500 μL of lysate in quadruplicate for controls. After 15 minute incubation, desthiobiotin-ATP acylphosphate probe is added to each sample to a final concentration of 5 μM and incubated with the samples for 10 minutes. Following the probe reaction, samples are prepared for targeted mass spectrum analysis using ActivX standard protocol. Briefly, samples are prepared for trypsin digestion (denature, reduce alkylate), digested with trypsin, and desthio-biotinylated peptides are enriched on streptavidin resin.
as §2
(§4) Data analysis: All quantitation is performed by extracting characteristic fragment ion signals from targeted MS/MS spectra and comparing signals in control and treated samples. ActivX software is used with manual validation/visual inspection performed as needed based on data flagging/filtering measures. All inhibition data points are visually verified, as are all data points showing variability outside of normal limits.

The next series has as its target A-Raf (Homo sapiens (Human), UniProt P10398). In words: ActivX KiNativ A375 whole cell lysate assay. It is filed as binding. On the procedure: as §1, §3, §2, §4
A further series has as its target B-Raf (V600E) (Homo sapiens (Human), UniProt P15056, V600E). In words: ActivX KiNativ A375 whole cell lysate assay. It is filed as binding. Here is the method:
as §1, §3, §2, §4

The subject of a further series is A375 xenograft tumor. In words: A375 mouse xenograft efficacy model. The series is classed as in vivo, mice. The settings on record: oral, 21 days. Here is the method: (§5) To further evaluate in vivo activity of compounds of Formula I, an A375 xenograft tumor model is utilized. Briefly, 10×10^6 cells in a 1:1 matrigel mix (0.2 mL total volume) are implanted by subcutaneous injection in the hind leg of nude female mice. A total of 8-10 mice in each group are used. Treatment is initiated with oral administration (gavage) of a test compound or vehicle (20% captisol, 25 mM phosphate, pH2.0) in 0.2 mL volume when tumor size reaches approximately 300-500 mg. Test compound is orally dosed twice or thrice a day for 21 days. Tumor growth and body weight are monitored over time to evaluate efficacy and signs of toxicity. Bidimensional measurements of tumors are performed twice a week and tumor volumes are calculated based on the following formula: (Tumor Volume)=[(L)×(W^2)×(π/6)] where L is mid-axis length and W is mid-axis width. Tumor volume data are transformed to a log scale to equalize variance across time and treatment groups. The log volume data are analyzed with a two-way repeated measures analysis of variance by time and treatment using the MIXED procedures in SAS software (version 8.2). The correlation model for the repeated measures is spatial power. Treated groups are compared to the control group at each time point. The MIXED procedure is also used separately for each treatment group to calculate adjusted means and standard errors at each time point. Both analyses account for the autocorrelation within each animal and the loss of data that occurs when animals with large tumors are removed from the study early. The adjusted means and standard errors are plotted for each treatment group versus time.

Series [3] in a line: Body weight in A375 mouse xenograft efficacy model. It is filed as in vivo, mice. Conditions: oral, 21 days. On the procedure: as §5
Series [4] deals with phospho-ERK in HCT-116 cells. In words: HCT-116 cell pERK assay (AlphaScreen SureFire). The settings on record: Homo sapiens; HCT-116 cells, B-Raf wild type, K-Ras mutation; 4 hours; read-out: IC50 reduction of phospho-ERK signal. It is filed as cell-based. Here is the method: Examples of Formula I are tested against HCT-116 cells harboring wild type B-Raf and K-Ras mutation. The phospho-ERK activities are evaluated as described below.
HCT-116 cells (catalog #CCL-247) are obtained from the American Type Culture Collection (ATCC, Manassas, Va.). Briefly, cells are grown in McCoy's 5A supplemented with 10% characterized fetal bovine serum (Invitrogen, Carlsbad, Calif.), and 1% Penicillin/Streptomycin/L-Glutamine at 37 degrees Celsius, 5% CO2, and 95% humidity. Cells are allowed to expand until reaching 75-90% confluency at which point they are subcultured or harvested for assay use. HCT-116 cells suspended in complete media are added to 384-well tissue culture treated plates (3×10^5 cells/mL; 7,500 cells per well). The cells are incubated overnight at 37 degrees Celsius, 5% CO2, and 95% humidity. Next, test compound or DMSO diluted in complete media is added to the wells (0.25% final DMSO concentration). The plates are then incubated for 4 hours at 37 degrees Celsius, 5% CO2, and 95% humidity. Following compound incubation, the cells are lysed at 4° C. for 20 minutes with shaking Cell lysates are centrifuged and the supernatant is transferred to a new plate. An aliquot of each lysate is transferred to a white 384-well assay plate. Using the AlphaScreen SureFire pERK kit (Perkin-Elmer, Waltham, Mass.), an acceptor bead mixture is added to each well and incubated for 2 h at room temperature in the dark. A donor bead mixture is then added to each well and incubated for 2 h at room temperature in the dark. Plates are read using a Synergy2 plate reader (Biotek, Winooski, Vt.) in Plate Mode with Timing Control. Read: (F)1: excitation: 680/30 nm, emission: Plug. 2: Excitation: Plug, emission: 570/100 nm. Top mirror 635 nm. Data is analyzed using Prism software (Graphpad, San Diego, Calif.) to calculate IC50 values and Excel software (Microsoft, Redmond, Wash.) to calculate stimulation compared to control.
(In Alpha technology, singlet oxygen from a donor bead excites a nearby acceptor bead.)

In series [5] the test system is A375res cells.
Text: (§6) A vemurafenib-resistant cell line is generated by chronic treatment of the human melanoma cell line A375 (ATCC) harboring the B-Raf V600E mutation with increasing concentrations PLX4720.
Series [6] relates to A375res cells. In words: Proliferation assay in vemurafenib-resistant A375res melanoma cells. The settings on record: Homo sapiens, 72 h, read-out: absolute IC50 values.
Text: as §6
Setting [7] is: twice a day at 12 mg/kg or thrice per day at 8 or 12 mg/kg.

B-Raf (V600E), sequence (P15056 whole entry V600E): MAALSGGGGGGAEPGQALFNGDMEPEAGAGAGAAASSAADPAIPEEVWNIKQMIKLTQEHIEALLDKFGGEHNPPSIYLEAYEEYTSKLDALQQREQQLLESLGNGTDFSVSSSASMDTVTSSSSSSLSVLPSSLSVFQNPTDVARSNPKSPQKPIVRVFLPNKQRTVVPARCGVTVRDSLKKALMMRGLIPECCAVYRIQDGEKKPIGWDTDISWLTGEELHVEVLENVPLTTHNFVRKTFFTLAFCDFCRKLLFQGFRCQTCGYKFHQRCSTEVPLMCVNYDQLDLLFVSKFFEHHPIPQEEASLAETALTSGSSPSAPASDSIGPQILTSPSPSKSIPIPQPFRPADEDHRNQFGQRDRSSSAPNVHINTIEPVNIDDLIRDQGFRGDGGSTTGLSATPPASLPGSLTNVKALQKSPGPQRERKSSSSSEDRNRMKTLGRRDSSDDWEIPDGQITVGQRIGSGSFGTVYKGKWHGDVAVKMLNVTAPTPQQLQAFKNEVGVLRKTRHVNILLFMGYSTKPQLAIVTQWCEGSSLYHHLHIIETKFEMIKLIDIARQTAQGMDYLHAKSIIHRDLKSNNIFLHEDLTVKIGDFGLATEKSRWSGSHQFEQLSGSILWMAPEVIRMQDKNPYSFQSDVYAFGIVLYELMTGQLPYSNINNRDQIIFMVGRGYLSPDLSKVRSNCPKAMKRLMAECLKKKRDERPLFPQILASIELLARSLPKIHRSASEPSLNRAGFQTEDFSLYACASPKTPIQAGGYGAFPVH
A-Raf, sequence (P10398 whole entry): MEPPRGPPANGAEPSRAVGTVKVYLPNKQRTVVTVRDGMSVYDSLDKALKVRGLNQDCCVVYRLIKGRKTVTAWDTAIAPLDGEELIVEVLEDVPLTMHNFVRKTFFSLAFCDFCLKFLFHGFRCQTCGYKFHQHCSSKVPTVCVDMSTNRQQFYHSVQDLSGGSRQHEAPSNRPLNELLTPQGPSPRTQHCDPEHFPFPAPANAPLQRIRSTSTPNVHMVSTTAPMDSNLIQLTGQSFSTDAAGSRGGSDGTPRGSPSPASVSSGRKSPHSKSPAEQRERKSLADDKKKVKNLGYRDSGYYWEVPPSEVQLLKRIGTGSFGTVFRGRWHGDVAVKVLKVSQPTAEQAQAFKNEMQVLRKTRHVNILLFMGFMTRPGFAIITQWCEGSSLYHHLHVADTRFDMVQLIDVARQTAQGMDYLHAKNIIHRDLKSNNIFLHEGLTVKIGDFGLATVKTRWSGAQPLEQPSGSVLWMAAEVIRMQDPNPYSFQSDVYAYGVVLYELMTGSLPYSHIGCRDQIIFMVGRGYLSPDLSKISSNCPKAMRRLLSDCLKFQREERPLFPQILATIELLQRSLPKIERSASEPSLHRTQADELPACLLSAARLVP

On to `CNc1cc2nc(C)c(-c3cc(NC(=O)NCCC(C)(C)C)c(F)cc3F)cc2cn1` [Example 18, 1-(2,4-difluoro-5-(2-methyl-7-(methylamino)-1,6-naphthyridin-3-yl)phenyl)-3-(3,3-dimethylbutyl)urea], for which the 50% inhibitory concentration (IC50) is below 170 nM in series [1]; 20 nM against C-Raf; 31 nM at A-Raf; 35 nM on B-Raf (V600E) (first B-Raf (V600E) column); 37 nM against B-Raf (V600E) (second B-Raf (V600E) column); 2 to 96 nM in [4]. The inhibition in vivo at 20 mg/kg in series [2] stood at 93%. Moreover, in the series with A375 xenograft tumor (setting [7]), the tumor growth result is reported as “tumor growth inhibition”. For the same compound, the “animal body weight loss” value in series [3] (setting [7]) is recorded as “minimal animal body weight loss”.
Turning to `CNc1cc2nc(C)c(-c3cc(NC(=O)NCCC(C)(C)F)c(F)cc3C)cc2cn1` [Example 76, 1-(3-fluoro-3-methylbutyl)-3-(2-fluoro-4-methyl-5-(2-methyl-7-(methylamino)-1,6-naphthyridin-3-yl)phenyl)urea], the IC50 in [1] was below 170 nM; on C-Raf it was 170 nM; at A-Raf, 120 nM; at B-Raf (V600E) (first B-Raf (V600E) column), 16 nM; at B-Raf (V600E) (second B-Raf (V600E) column), 22 nM; in the series with A375res cells [6], 9 to 504 nM. For the same compound, the IC50 in series [4] lay within 2 to 96 nM. For the same compound, the “IC50 shift A375 to A375res” value in the series with A375res cells [5] is listed as 0.5-4.9 fold. For the same compound, the tumor growth result in the series with A375 xenograft tumor (twice a day at 10 or 30 mg/kg) is “tumor growth inhibition and tumor growth regression”. Further, the “animal body weight loss” value in series [3] (twice a day at 10 or 30 mg/kg) is “minimal animal body weight loss”.

As usually defined, the IC50 is the concentration that inhibits the measured activity by half.
